{"source": "PubChem BioAssay AID1963978", "about": "(Molecular Pharmacology Branch, DTP, NCI, 2024);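 further: spheroids exposed to agents for seven days before the viability read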", "system": "616215-338-R-J1-PDC spheroids with HUVEC/MSC, viability", "experiment": "Anticancer human tumor 616215-338-R-J1-PDC patient-derived colon adenocarcinoma cell line growth inhibition [PI3K]", "conditions": "for viability, T/C: stronger effect = lower value", "in_short": "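Three cell types, namely tumor cells, endothelial cells and mesenchymal stem cells, formed each spheroid. Combinations with four PI3K inhibitors were screened at clinically achievable concentrations decreasing by half-log, and spheroid viability was recorded.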", "key": {"[1]": {"conditions": "curve of first compound, second compound 0.0316 µM"}, "[2]": {"conditions": "curve of first compound, second compound 0.1 µM"}, "[3]": {"conditions": "curve of first compound, second compound 0.316 µM"}, "[4]": {"conditions": "curve of first compound, second compound 1 µM"}, "[5]": {"conditions": "second compound 0.0316 µM, first compound 0.0316 µM"}, "[6]": {"conditions": "second compound 0.0316 µM, first compound 0.1 µM"}, "[7]": {"conditions": "second compound 0.0316 µM, first compound 0.316 µM"}, "[8]": {"conditions": "second compound 0.0316 µM, first compound 1 µM"}, "[9]": {"conditions": "second compound 0.0316 µM, first compound 3.16 µM"}, "[10]": {"conditions": "second compound 0.0316 µM, first compound 10 µM"}, "[11]": {"conditions": "second compound 0.1 µM, first compound 0.0316 µM"}, "[12]": {"conditions": "second compound 0.1 µM, first compound 0.1 µM"}, "[13]": {"conditions": "second compound 0.1 µM, first compound 0.316 µM"}, "[14]": {"conditions": "second compound 0.1 µM, first compound 1 µM"}, "[15]": {"conditions": "second compound 0.1 µM, first compound 3.16 µM"}, "[16]": {"conditions": "second compound 0.1 µM, first compound 10 µM"}, "[17]": {"conditions": "second compound 0.316 µM, first compound 0.0316 µM"}, "[18]": {"conditions": "second compound 0.316 µM, first compound 0.1 µM"}, "[19]": {"conditions": "second compound 0.316 µM, first compound 0.316 µM"}, "[20]": {"conditions": "second compound 0.316 µM, first compound 1 µM"}, "[21]": {"conditions": "second compound 0.316 µM, first compound 3.16 µM"}, "[22]": {"conditions": "second compound 0.316 µM, first compound 10 µM"}, "[23]": {"conditions": "second compound 1 µM, first compound 0.0316 µM"}, "[24]": {"conditions": "second compound 1 µM, first compound 0.1 µM"}, "[25]": {"conditions": "second compound 1 µM, first compound 0.316 µM"}, "[26]": {"conditions": "second compound 1 µM, first compound 1 µM"}, "[27]": {"conditions": "second compound 1 µM, first compound 3.16 µM"}, "[28]": {"conditions": "second compound 1 µM, first compound 10 µM"}}}
{"smiles": "C#Cc1c(F)ccc2cc(O)cc(-c3ncc4c(N5CC6CCC(C5)N6)nc(OCC56CCCN5CC(F)C6)nc4c3F)c12", "note": "(stereo unspecified)", "values": [{"measurement": "viability, T/C", "setting": "compound 0.0316 µM", "result": "97.3% [middle of 4 runs]"}, {"measurement": "viability, T/C", "setting": "compound 0.1 µM", "result": "96.7% [middle of 4 runs]"}, {"measurement": "viability, T/C", "setting": "compound 0.316 µM", "result": "105% [middle of 4 runs]"}, {"measurement": "viability, T/C", "setting": "compound 1 µM", "result": "96.1% [middle of 4 runs]"}, {"measurement": "viability, T/C", "setting": "compound 3.16 µM", "result": "95% [middle of 4 runs]"}, {"measurement": "viability, T/C", "setting": "compound 10 µM", "result": "83% [middle of 4 runs]"}, {"measurement": "IC50", "setting": "curve of compound", "result": "> 10000", "unit": "nM"}]}
{"smiles": "CC(Cn1ccc(-c2ccc(C#N)c(Cl)c2)n1)NC(=O)c1cc(C(C)O)[nH]n1", "note": "(stereo unspecified) + CC(Nc1ccc2c(c1)OCCn1cc(N3C(=O)OCC3C(F)F)nc1-2)C(N)=O", "values": [{"measurement": "IC50", "setting": "curve of first compound, second compound 0.00316 µM", "result": "> 10000", "unit": "nM"}, {"measurement": "IC50", "setting": "curve of first compound, second compound 0.01 µM", "result": "> 10000", "unit": "nM"}, {"measurement": "IC50", "setting": "[1]", "result": "> 10000", "unit": "nM"}, {"measurement": "IC50", "setting": "[2]", "result": "> 10000", "unit": "nM"}, {"measurement": "IC50", "setting": "[3]", "result": "> 10000", "unit": "nM"}, {"measurement": "IC50", "setting": "[4]", "result": "> 10000", "unit": "nM"}, {"measurement": "viability, T/C", "setting": "second compound 0.00316 µM, first compound 0.0316 µM", "result": 90.8, "unit": "%"}, {"measurement": "viability, T/C", "setting": "second compound 0.00316 µM, first compound 0.1 µM", "result": 94, "unit": "%"}, {"measurement": "viability, T/C", "setting": "second compound 0.00316 µM, first compound 0.316 µM", "result": 91.2, "unit": "%"}, {"measurement": "viability, T/C", "setting": "second compound 0.00316 µM, first compound 1 µM", "result": 93.6, "unit": "%"}, {"measurement": "viability, T/C", "setting": "second compound 0.00316 µM, first compound 3.16 µM", "result": 92.4, "unit": "%"}, {"measurement": "viability, T/C", "setting": "second compound 0.00316 µM, first compound 10 µM", "result": 94.3, "unit": "%"}, {"measurement": "viability, T/C", "setting": "second compound 0.01 µM, first compound 0.0316 µM", "result": 89.3, "unit": "%"}, {"measurement": "viability, T/C", "setting": "second compound 0.01 µM, first compound 0.1 µM", "result": 105, "unit": "%"}, {"measurement": "viability, T/C", "setting": "second compound 0.01 µM, first compound 0.316 µM", "result": 102, "unit": "%"}, {"measurement": "viability, T/C", "setting": "second compound 0.01 µM, first compound 1 µM", "result": 92.4, "unit": "%"}, {"measurement": "viability, T/C", "setting": "second compound 0.01 µM, first compound 3.16 µM", "result": 92.3, "unit": "%"}, {"measurement": "viability, T/C", "setting": "second compound 0.01 µM, first compound 10 µM", "result": 104, "unit": "%"}, {"measurement": "viability, T/C", "setting": "[5]", "result": 94.4, "unit": "%"}, {"measurement": "viability, T/C", "setting": "[6]", "result": 105, "unit": "%"}, {"measurement": "viability, T/C", "setting": "[7]", "result": 90.1, "unit": "%"}, {"measurement": "viability, T/C", "setting": "[8]", "result": 101, "unit": "%"}, {"measurement": "viability, T/C", "setting": "[9]", "result": 96.3, "unit": "%"}, {"measurement": "viability, T/C", "setting": "[10]", "result": 101, "unit": "%"}, {"measurement": "viability, T/C", "setting": "[11]", "result": 107, "unit": "%"}, {"measurement": "viability, T/C", "setting": "[12]", "result": 88, "unit": "%"}, {"measurement": "viability, T/C", "setting": "[13]", "result": 96.8, "unit": "%"}, {"measurement": "viability, T/C", "setting": "[14]", "result": 102, "unit": "%"}, {"measurement": "viability, T/C", "setting": "[15]", "result": 105, "unit": "%"}, {"measurement": "viability, T/C", "setting": "[16]", "result": 94.4, "unit": "%"}, {"measurement": "viability, T/C", "setting": "[17]", "result": 109, "unit": "%"}, {"measurement": "viability, T/C", "setting": "[18]", "result": 104, "unit": "%"}, {"measurement": "viability, T/C", "setting": "[19]", "result": 107, "unit": "%"}, {"measurement": "viability, T/C", "setting": "[20]", "result": 101, "unit": "%"}, {"measurement": "viability, T/C", "setting": "[21]", "result": 101, "unit": "%"}, {"measurement": "viability, T/C", "setting": "[22]", "result": 110, "unit": "%"}, {"measurement": "viability, T/C", "setting": "[23]", "result": 101, "unit": "%"}, {"measurement": "viability, T/C", "setting": "[24]", "result": 99.8, "unit": "%"}, {"measurement": "viability, T/C", "setting": "[25]", "result": 104, "unit": "%"}, {"measurement": "viability, T/C", "setting": "[26]", "result": 103, "unit": "%"}, {"measurement": "viability, T/C", "setting": "[27]", "result": 99.4, "unit": "%"}, {"measurement": "viability, T/C", "setting": "[28]", "result": 97.8, "unit": "%"}]}
{"smiles": "CC1(C)CCC(Nc2ncc(C(F)(F)F)c(-c3c[nH]c4c(P(C)(C)=O)c(C#N)ccc34)n2)CN1", "note": "(stereo unspecified) + CC(Nc1ncnc2nc[nH]c12)c1cc2cccc(Cl)c2c(=O)n1-c1ccccc1", "values": [{"measurement": "IC50", "setting": "[1]", "result": 31.6, "unit": "nM"}, {"measurement": "IC50", "setting": "[2]", "result": 31.6, "unit": "nM"}, {"measurement": "IC50", "setting": "[3]", "result": 31.6, "unit": "nM"}, {"measurement": "IC50", "setting": "[4]", "result": "< 31.6", "unit": "nM"}, {"measurement": "IC50", "setting": "curve of first compound, second compound 3.16 µM", "result": 1090, "unit": "nM"}, {"measurement": "IC50", "setting": "curve of first compound, second compound 10 µM", "result": 714, "unit": "nM"}, {"measurement": "viability, T/C", "setting": "[5]", "result": 53.9, "unit": "%"}, {"measurement": "viability, T/C", "setting": "[6]", "result": 39, "unit": "%"}, {"measurement": "viability, T/C", "setting": "[7]", "result": 44.9, "unit": "%"}, {"measurement": "viability, T/C", "setting": "[8]", "result": 51.6, "unit": "%"}, {"measurement": "viability, T/C", "setting": "[9]", "result": 51.8, "unit": "%"}, {"measurement": "viability, T/C", "setting": "[10]", "result": 0.44, "unit": "%"}, {"measurement": "viability, T/C", "setting": "[11]", "result": 50.6, "unit": "%"}, {"measurement": "viability, T/C", "setting": "[12]", "result": 37, "unit": "%"}, {"measurement": "viability, T/C", "setting": "[13]", "result": 44.8, "unit": "%"}, {"measurement": "viability, T/C", "setting": "[14]", "result": 45.8, "unit": "%"}, {"measurement": "viability, T/C", "setting": "[15]", "result": 54, "unit": "%"}, {"measurement": "viability, T/C", "setting": "[16]", "result": 1.73, "unit": "%"}, {"measurement": "viability, T/C", "setting": "[17]", "result": 44, "unit": "%"}, {"measurement": "viability, T/C", "setting": "[18]", "result": 37.4, "unit": "%"}, {"measurement": "viability, T/C", "setting": "[19]", "result": 41.1, "unit": "%"}, {"measurement": "viability, T/C", "setting": "[20]", "result": 42.3, "unit": "%"}, {"measurement": "viability, T/C", "setting": "[21]", "result": 51.3, "unit": "%"}, {"measurement": "viability, T/C", "setting": "[22]", "result": 0.53, "unit": "%"}, {"measurement": "viability, T/C", "setting": "[23]", "result": 42.2, "unit": "%"}, {"measurement": "viability, T/C", "setting": "[24]", "result": 41.1, "unit": "%"}, {"measurement": "viability, T/C", "setting": "[25]", "result": 39.9, "unit": "%"}, {"measurement": "viability, T/C", "setting": "[26]", "result": 70.7, "unit": "%"}, {"measurement": "viability, T/C", "setting": "[27]", "result": 46.5, "unit": "%"}, {"measurement": "viability, T/C", "setting": "[28]", "result": 1.13, "unit": "%"}, {"measurement": "viability, T/C", "setting": "second compound 3.16 µM, first compound 0.0316 µM", "result": 44.1, "unit": "%"}, {"measurement": "viability, T/C", "setting": "second compound 3.16 µM, first compound 0.1 µM", "result": 39.4, "unit": "%"}, {"measurement": "viability, T/C", "setting": "second compound 3.16 µM, first compound 0.316 µM", "result": 64.1, "unit": "%"}, {"measurement": "viability, T/C", "setting": "second compound 3.16 µM, first compound 1 µM", "result": 57.4, "unit": "%"}, {"measurement": "viability, T/C", "setting": "second compound 3.16 µM, first compound 3.16 µM", "result": 41.8, "unit": "%"}, {"measurement": "viability, T/C", "setting": "second compound 3.16 µM, first compound 10 µM", "result": 0.36, "unit": "%"}, {"measurement": "viability, T/C", "setting": "second compound 10 µM, first compound 0.0316 µM", "result": 48, "unit": "%"}, {"measurement": "viability, T/C", "setting": "second compound 10 µM, first compound 0.1 µM", "result": 51.3, "unit": "%"}, {"measurement": "viability, T/C", "setting": "second compound 10 µM, first compound 0.316 µM", "result": 58.4, "unit": "%"}, {"measurement": "viability, T/C", "setting": "second compound 10 µM, first compound 1 µM", "result": 48.4, "unit": "%"}, {"measurement": "viability, T/C", "setting": "second compound 10 µM, first compound 3.16 µM", "result": 20.9, "unit": "%"}, {"measurement": "viability, T/C", "setting": "second compound 10 µM, first compound 10 µM", "result": 0.61, "unit": "%"}]}
